We go through 16 compounds from patent publication US12421212B2, “Substituted benzenecarboxamides as IL-17A modulators” (DiCE Alpha, Inc., priority 2019, dated 2025).

The target in one experiment is T1, IL-17A/A (Homo sapiens, UniProt Q16552).
T1 construct: purchased Genscript Z03228
T1 sequence (Q16552 24-155): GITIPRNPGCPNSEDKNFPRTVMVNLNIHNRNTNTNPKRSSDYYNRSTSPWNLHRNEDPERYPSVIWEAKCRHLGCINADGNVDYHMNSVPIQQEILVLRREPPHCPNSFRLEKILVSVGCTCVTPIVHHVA
As to the kind of experiment: IL-17A/A HEK-Blue Cell Assay. The settings on record: HEK-Blue IL-17A reporter cell line, SEAP readout at A630, 20 hours incubation with IL-17A/A; top concentration 10 uM, 1 uM or 0.3 uM. It counts as cell-based. On the procedure:
The HEK-Blue IL-17A reporter cell line (Fisher #NC1408637) was used for cell-based IL-17A/A inhibition assays. Cells were grown and prepared for assays according to the manufacturer's instructions. This cell line consists of HEK 293 cells that were designed to expressed IL-17RA, IL-17RC, and the ActI adapter molecule, the combination of which, when stimulated by IL-17A/A activates a NFκB promoter and drives expression of a recombinant Secreted Alkaline Phosphatase (SEAP) geneprotein. Media from the cells is then added to a development reagent (Quanti-Blue Substrate, Fisher #NC9711613), and read at A630.
Compounds were titrated in DMSO, with a top final compound concentration of 10 uM, 1 uM, or 0.3 uM, and added to the cells immediately before adding IL-17A/A (Genscript #Z03228). The cells, compound, and IL-17A/A were then incubated for 20 hours before media was removed for SEAP analysis. The resulting inhibition curve was then analyzed using Graphpad Prism 7.0, and IC50 values were determined using a 4-parameter nonlinear fit. DMSO was added to a universal final concentration of 0.1% to optimize background.
Regarding `CC(C)n1nccc1C(=O)N[C@H](C(=O)Nc1ccc([C@H](C)[C@@H](NC(=O)NC2CC2)C(=O)N2CCNCC2)cc1F)C1CCCCC1` [Compound 315], the “IL-17A/A inhibition (pIC50)” value is recorded as “A (compounds having a pIC50 of greater than or equal 8 as A)”.

For the compound `CCC(=O)N[C@@H](C(=O)N1CCN(C)CC1)[C@@H](C)c1ccc(NC(=O)C(NC(=O)c2ccnn2CC)C(CC)c2ccc(F)cc2)c(F)c1` (single isomer, unassigned) [Compound 553], the “IL-17A/A inhibition (pIC50)” value is “X2a (compounds were evaluated up to 1 uM and did not inhibit activity by >80%, however they showed some activity at 1 uM (less than 80% and more than 20%))”.

In the case of `CCC(=O)N[C@@H](C(=O)N1CCN(C)CC1)[C@@H](C)c1ccc(NC(=O)C(NC(=O)c2ccnn2CC)C(C)C2CCC(F)(F)CC2)c(F)c1` (single isomer, unassigned) [Compound 589], the “IL-17A/A inhibition (pIC50)” value is “X3b (compounds were evaluated up to 0.3 uM and inhibited activity at 0.3 uM by less than 20%)”.

As for `CCC(=O)N[C@@H](C(=O)N1CCN(C)CC1)[C@H](C)c1ccc(NC(=O)[C@@H](NC(=O)c2ccnn2CC)[C@H]2CC[C@H](C)CC2)c(F)c1` [Compound 544], the “IL-17A/A inhibition (pIC50)” value is “X3a (compounds were evaluated up to 0.3 uM and did not inhibit activity by >80%, however they showed some activity at 0.3 uM (less than 80% and more than 20%))”.

As to `CCC(=O)N[C@H](Cc1ccc(NC(=O)[C@@H](NC(=O)c2ccc(S(=O)(=O)NC)s2)C2CCCCC2)c(F)c1)C(=O)N1CCN(C)CC1` [Compound 718], the “IL-17A/A inhibition (pIC50)” value is “X2a (compounds were evaluated up to 1 uM and did not inhibit activity by >80%, however they showed some activity at 1 uM (less than 80% and more than 20%))”.

The same experiment, now with this note: HEK-Blue IL-17A reporter cell line, SEAP readout at A630, 20 hours incubation with IL-17A/A; top concentration 10 uM, 1 uM or 0.3 uM; read-out: IL-17A/A inhibition (pIC50) (converted).
`CCC(=O)N[C@@H](C(=O)N1CCC(C)(O)CC1)[C@@H](C)c1ccc(NC(=O)[C@@H](NC(=O)c2ccnn2C(C)C)[C@H]2CC[C@H](C)CC2)c(F)c1` [Compound 377]: the IC50 was 10 to 100 nM.

Turning to `CCC(=O)N[C@H](C(=O)N1CCN(C)CC1)[C@H](C)c1ccc(NC(=O)[C@@H](NC(=O)c2ccnn2CC)[C@@H](C)OC2CCCCC2)c(F)c1` [Compound 389], the IC50 was 10 to 100 nM.

Consider `CCn1nccc1C(=O)N[C@H](C(=O)Nc1ccc([C@H](C)[C@@H](NC(=O)C2(F)CCC2)C(=O)N2CCN(C)[C@H](C)C2)cc1F)[C@H]1CC[C@H](C)CC1` [Compound 482], for which the IC50 was 10 to 100 nM.

As for `CCn1nccc1C(=O)N[C@H](C(=O)Nc1ccc([C@H](C)[C@@H](NC(=O)c2cnnn2C)C(=O)N2CCN(C)CC2)cc1F)C1CCCCC1` [Compound 306], the IC50 is 10 to 100 nM.

For `CCC(=O)N[C@H](Cc1ccc(NC(=O)[C@@H](NC(=O)c2ccnn2CC)C2CCCCC2)cc1Cl)C(=O)N1CCN(C)CC1` [Compound 691], the IC50 was 100 to 10000 nM.

In the case of `COc1ccc(C(F)(F)C(=O)N[C@H](C(=O)Nc2ccc([C@H](C)[C@@H](NC(=O)c3cnns3)C(=O)N3CCN(C)CC3)cc2F)C2CCCCCC2)cn1` [Compound 331], the IC50 was less than 10 nM.

On to `C[C@@H](c1ccc(NC(=O)[C@@H](NC(=O)c2coc3ccncc23)[C@H]2CC[C@H](C)CC2)c(F)c1)[C@@H](NC(=O)c1cnns1)C(=O)N1CCN(C)CC1` [Compound 526], for which the IC50 is 10 to 100 nM.

For the compound `CCC(=O)N[C@@H](C(=O)N1CCN(C)CC1)[C@@H](C)c1ccc(NC(=O)[C@@H](NC(=O)c2coc3c2COC3)[C@H]2CC[C@H](C)CC2)c(F)c1` [Compound 277], the IC50 is less than 10 nM.

Take `CCC(=O)N[C@@H](C(=O)N1CCN(C)CC1)[C@@H](C)c1ccc(NC(=O)C(NC(=O)C(F)(F)c2cnc(OC)nc2)C2CCCCCC2)c(F)c1` (stereo partly shown) [Compound 418]: the IC50 was 10 to 100 nM.

As to `CCC(=O)N[C@H](Cc1ccc(NC(=O)[C@@H](NC(=O)c2coc3cc(OC)ccc23)C2CCCCC2)c(F)c1)C(=O)N1CCN(C)CC1` [Compound 239], the IC50 was 10 to 100 nM.

For the compound `CCC(=O)N[C@@H](C(=O)N1CCN(C)CC1)[C@@H](C)c1ccc(NC(=O)[C@@H](NC(=O)c2coc3cc(OC)ccc23)C2CCCCC2)c(F)c1` [Compound 255], the IC50 was 10 to 100 nM.
